ChEMBL document CHEMBL5212743, “Selectivity Literature for EUbOPEN Chemogenomics Library wave 3” (2023)

How the values were obtained:
[1] = biological target: Phosphatidylinositol 3-kinase C2 domain-containing subunit gamma (Homo sapiens) (UniProt O75747); test: Selectivity interaction (KinomeScan (DiscoverX)) EUB0000007b PIK3C2G; conditions: at 1 µM
[2] = biological target: Transcription initiation factor TFIID subunit 1 (Homo sapiens, UniProt P21675); test: Selectivity interaction (BRD panel (HTRF assay)) EUB0000007b TAF1
[3] = biological target: SRSF protein kinase 1 (Homo sapiens) (UniProt Q96SB4); test: Selectivity interaction (KinomeScan (DiscoverX)) EUB0000727a SRPK1; conditions: at 100 nM
D(1B) dopamine receptor [4] = biological target: T1, D(1B) dopamine receptor (Homo sapiens, UniProt P21918); test: Selectivity interaction (GPCR panel (PDSP screen)) EUB0000727a DRD5
[5] = biological target: Serine/threonine-protein kinase mTOR (Homo sapiens) (UniProt P42345); test: Selectivity interaction (KinomeScan (DiscoverX)) EUB0000727a MTOR; conditions: at 100 nM
[6] = biological target: Serine/threonine-protein kinase PAK 2 (Homo sapiens) (UniProt Q13177); test: Selectivity interaction (KinomeScan (DiscoverX)) EUB0000727a PAK2
[7] = biological target: G protein-coupled receptor kinase 3 (Homo sapiens, UniProt P35626); test: Selectivity interaction (KinomeScan (DiscoverX, competition-binding assay)) EUB0001135a ADRBK2
[8] = biological target: T2, Death-associated protein kinase 3 (Homo sapiens, UniProt O43293); test: Selectivity interaction (KinomeScan (DiscoverX)) EUB0001135a DAPK3; conditions: at 1 µM
[9] = biological target: Beta-3 adrenergic receptor (Homo sapiens, UniProt P13945); test: Selectivity interaction (GPCR panel (PDSP screen)) EUB0001135a ADRB3; conditions: at 10 µM
Histamine H1 receptor = Histamine H1 receptor (Homo sapiens, UniProt P35367); test: Selectivity interaction (GPCR panel (PDSP screen)) EUB0001135a HRH1; conditions: at 10 µM
[10] = biological target: T2, Death-associated protein kinase 3; test: Selectivity interaction (KinomeScan (DiscoverX, competition-binding assay)) EUB0001135a DAPK3
[11] = biological target: T3, G protein-coupled receptor kinase 3 (Homo sapiens) (UniProt P35626); test: Selectivity interaction (KinomeScan (DiscoverX)) EUB0001135a ADRBK2; conditions: at 1 µM
T3 sequence (whole entry): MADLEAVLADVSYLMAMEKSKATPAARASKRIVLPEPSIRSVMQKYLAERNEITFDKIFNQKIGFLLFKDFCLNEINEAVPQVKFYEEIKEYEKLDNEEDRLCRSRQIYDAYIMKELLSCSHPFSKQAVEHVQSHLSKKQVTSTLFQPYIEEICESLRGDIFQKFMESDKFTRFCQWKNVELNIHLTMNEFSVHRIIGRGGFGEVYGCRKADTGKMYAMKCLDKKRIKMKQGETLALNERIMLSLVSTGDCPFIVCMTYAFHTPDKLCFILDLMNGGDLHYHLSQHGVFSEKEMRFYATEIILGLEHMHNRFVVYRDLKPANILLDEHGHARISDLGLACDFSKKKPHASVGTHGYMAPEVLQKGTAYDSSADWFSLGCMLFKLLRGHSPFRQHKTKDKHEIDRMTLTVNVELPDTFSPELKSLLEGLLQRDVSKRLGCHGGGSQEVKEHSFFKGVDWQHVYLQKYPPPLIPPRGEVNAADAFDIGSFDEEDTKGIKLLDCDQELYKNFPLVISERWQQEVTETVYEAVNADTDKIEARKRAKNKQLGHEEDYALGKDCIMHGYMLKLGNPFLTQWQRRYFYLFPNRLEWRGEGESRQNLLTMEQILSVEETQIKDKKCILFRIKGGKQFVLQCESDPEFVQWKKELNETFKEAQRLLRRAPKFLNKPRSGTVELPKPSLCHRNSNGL

[12] = biological target: T4, Gamma-aminobutyric acid receptor subunit alpha-1 (Homo sapiens, UniProt P14867); test: Selectivity interaction (GPCR panel (PDSP screen)) EUB0000301b GABRA1
T4 sequence (P14867 whole entry): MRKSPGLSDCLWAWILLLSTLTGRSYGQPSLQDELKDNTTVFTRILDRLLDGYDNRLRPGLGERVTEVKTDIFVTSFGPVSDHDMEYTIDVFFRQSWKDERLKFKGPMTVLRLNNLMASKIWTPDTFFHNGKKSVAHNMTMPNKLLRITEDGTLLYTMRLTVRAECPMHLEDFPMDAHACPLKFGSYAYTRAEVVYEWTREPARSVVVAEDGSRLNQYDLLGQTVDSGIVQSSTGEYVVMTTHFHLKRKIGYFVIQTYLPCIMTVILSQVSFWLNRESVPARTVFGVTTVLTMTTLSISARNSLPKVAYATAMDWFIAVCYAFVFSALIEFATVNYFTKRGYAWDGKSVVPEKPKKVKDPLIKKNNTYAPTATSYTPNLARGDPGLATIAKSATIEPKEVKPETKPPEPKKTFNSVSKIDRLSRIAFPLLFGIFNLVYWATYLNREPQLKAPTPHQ

[13] = biological target: Cyclin-dependent kinase 8 (Homo sapiens) (UniProt P49336); test: Selectivity interaction (KinomeScan (DiscoverX)) EUB0000301b CDK8; conditions: at 1 µM
[14] = biological target: eIF-2-alpha kinase GCN2 (Homo sapiens) (UniProt Q9P2K8); test: Selectivity interaction (KinomeScan (DiscoverX)) EUB0000301b EIF2AK4; conditions: at 1 µM
[15] = biological target: Dual specificity mitogen-activated protein kinase kinase 2 (Homo sapiens, UniProt P36507); test: Selectivity interaction (Kinase panel (enzymatic assay)) EUB0000684a MAP2K2
[16] = biological target: Dual specificity mitogen-activated protein kinase kinase 1 (Homo sapiens, UniProt Q02750); test: Selectivity interaction (Kinase panel (enzymatic assay)) EUB0000684a MAP2K1
[17] = biological target: T4, Gamma-aminobutyric acid receptor subunit alpha-1; test: Selectivity interaction (GPCR panel (PDSP screen)) EUB0000297b GABRA1
[18] = biological target: Dual specificity tyrosine-phosphorylation-regulated kinase 1B (Homo sapiens, UniProt Q9Y463); test: Selectivity interaction (KinomeScan (DiscoverX)) EUB0000297b DYRK1B; conditions: at 1 µM
[19] = biological target: Rho-associated protein kinase 1 (Homo sapiens) (UniProt Q13464); test: Selectivity interaction (KinomeScan (DiscoverX)) EUB0000297b ROCK1; conditions: at 1 µM
[20] = biological target: Voltage-dependent L-type calcium channel subunit alpha-1C (Homo sapiens, UniProt Q13936); test: Selectivity interaction (Eurofins Panlabs panel (receptors, ion channel, and other enzymes)) EUB0000310b CACNA1C; conditions: at 10 µM
[21] = biological target: Serine/threonine-protein kinase 38-like (Homo sapiens, UniProt Q9Y2H1); test: Selectivity interaction (KinomeScan (DiscoverX)) EUB0000310b STK38L
[22] = biological target: STE20/SPS1-related proline-alanine-rich protein kinase (Homo sapiens) (UniProt Q9UEW8); test: Selectivity interaction (KinomeScan (DiscoverX)) EUB0000310b STK39
[23] = biological target: Interferon-induced, double-stranded RNA-activated protein kinase (Homo sapiens) (UniProt P19525); test: Selectivity interaction (KinomeScan (DiscoverX)) EUB0000310b EIF2AK2
[24] = biological target: Sigma intracellular receptor 2 (Homo sapiens, UniProt Q5BJF2); test: Selectivity interaction (GPCR panel (PDSP screen)) EUB0000310b TMEM97
[25] = biological target: cAMP-dependent protein kinase catalytic subunit alpha (Homo sapiens, UniProt P17612); test: Selectivity interaction (Enzyme panel (Invitrogen)) EUB0000730a PRKACA
D(1B) dopamine receptor [26] = biological target: T1, D(1B) dopamine receptor; test: Selectivity interaction (GPCR panel (PDSP screen)) EUB0000730a DRD5
Neutrophil collagenase = Neutrophil collagenase (Homo sapiens, UniProt P22894); test: Selectivity interaction (MMPs panel (FRET assay)) EUB0000730a MMP8
[27] = biological target: 5'-AMP-activated protein kinase catalytic subunit alpha-1 (Homo sapiens, UniProt Q13131); test: Selectivity interaction (Enzyme panel (Invitrogen)) EUB0000730a PRKAA1
Matrilysin = biological target: T5, Matrilysin (Homo sapiens, UniProt P09237); test: Selectivity interaction (MMPs panel (FRET assay)) EUB0000730a MMP7
T5 sequence (P09237 whole entry): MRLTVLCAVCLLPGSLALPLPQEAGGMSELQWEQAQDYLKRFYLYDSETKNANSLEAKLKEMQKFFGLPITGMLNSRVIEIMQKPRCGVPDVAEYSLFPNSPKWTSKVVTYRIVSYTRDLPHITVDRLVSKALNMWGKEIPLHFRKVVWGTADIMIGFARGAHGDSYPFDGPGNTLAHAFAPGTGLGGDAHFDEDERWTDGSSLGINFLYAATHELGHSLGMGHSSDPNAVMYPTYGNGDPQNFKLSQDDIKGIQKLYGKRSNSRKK

[28] = biological target: Cyclin-dependent kinase-like 3 (Homo sapiens) (UniProt Q8IVW4); conditions: at 100 nM
Stromelysin-1 = Stromelysin-1 (Homo sapiens, UniProt P08254); test: Selectivity interaction (MMPs panel (FRET assay)) EUB0000730a MMP3
[29] = biological target: MAP kinase-activated protein kinase 2 (Homo sapiens, UniProt P49137); test: Selectivity interaction (Enzyme panel (Invitrogen)) EUB0000730a MAPKAPK2
Aurora kinase A = Aurora kinase A (Homo sapiens, UniProt O14965); test: Selectivity interaction (Enzyme panel (Invitrogen)) EUB0000730a STK6
[30] = biological target: Cyclin-dependent kinase 19 (Homo sapiens) (UniProt Q9BWU1); conditions: at 100 nM
[31] = biological target: Macrophage metalloelastase (Homo sapiens, UniProt P39900); test: Selectivity interaction (MMPs panel (FRET assay)) EUB0000730a MMP12
[32] = biological target: Cyclin-dependent kinase 3 (Homo sapiens) (UniProt Q00526); conditions: at 100 nM
Interstitial collagenase = Interstitial collagenase (Homo sapiens, UniProt P03956); test: Selectivity interaction (MMPs panel (FRET assay)) EUB0000730a MMP1
D(1B) dopamine receptor [33] = biological target: T1, D(1B) dopamine receptor; conditions: at 10 µM
[34] = biological target: T6, Sodium-dependent dopamine transporter (Homo sapiens, UniProt Q01959); test: Selectivity interaction (GPCR panel (PDSP screen)) EUB0000741a SLC6A3
[35] = biological target: T6, Sodium-dependent dopamine transporter; test: Selectivity interaction (GPCR panel (PDSP screen)) EUB0000541a SLC6A3

T1 sequence (P21918 whole entry): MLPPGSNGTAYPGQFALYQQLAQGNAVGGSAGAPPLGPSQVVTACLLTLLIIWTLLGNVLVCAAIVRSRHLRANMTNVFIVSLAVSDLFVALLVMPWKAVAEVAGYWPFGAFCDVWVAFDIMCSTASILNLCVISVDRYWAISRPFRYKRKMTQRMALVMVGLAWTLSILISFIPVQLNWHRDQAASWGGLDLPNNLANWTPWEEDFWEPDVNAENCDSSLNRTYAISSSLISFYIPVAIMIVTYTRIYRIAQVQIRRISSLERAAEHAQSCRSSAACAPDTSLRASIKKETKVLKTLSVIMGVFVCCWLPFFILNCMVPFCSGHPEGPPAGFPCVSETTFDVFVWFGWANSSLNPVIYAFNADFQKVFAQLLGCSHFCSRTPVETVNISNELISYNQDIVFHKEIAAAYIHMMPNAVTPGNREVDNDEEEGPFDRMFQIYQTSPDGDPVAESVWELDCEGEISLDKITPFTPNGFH
T6 sequence (Q01959 whole entry): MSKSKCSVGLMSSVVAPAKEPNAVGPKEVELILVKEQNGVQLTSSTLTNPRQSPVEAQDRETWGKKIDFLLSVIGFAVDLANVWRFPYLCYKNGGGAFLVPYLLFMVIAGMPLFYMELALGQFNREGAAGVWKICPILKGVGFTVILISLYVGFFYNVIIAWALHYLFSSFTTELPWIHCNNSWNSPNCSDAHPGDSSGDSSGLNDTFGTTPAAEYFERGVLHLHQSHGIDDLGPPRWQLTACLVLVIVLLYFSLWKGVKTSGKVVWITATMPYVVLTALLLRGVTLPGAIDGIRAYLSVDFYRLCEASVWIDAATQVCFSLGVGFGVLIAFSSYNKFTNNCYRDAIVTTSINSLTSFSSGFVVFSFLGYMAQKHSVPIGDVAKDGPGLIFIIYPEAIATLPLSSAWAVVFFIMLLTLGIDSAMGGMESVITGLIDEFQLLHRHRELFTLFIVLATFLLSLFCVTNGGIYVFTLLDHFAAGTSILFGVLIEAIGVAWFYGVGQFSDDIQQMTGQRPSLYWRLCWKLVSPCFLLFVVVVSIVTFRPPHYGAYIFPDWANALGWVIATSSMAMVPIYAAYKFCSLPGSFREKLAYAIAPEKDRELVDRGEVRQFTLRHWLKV
Sequence of Beta-3 adrenergic receptor (P13945 whole entry, looked up): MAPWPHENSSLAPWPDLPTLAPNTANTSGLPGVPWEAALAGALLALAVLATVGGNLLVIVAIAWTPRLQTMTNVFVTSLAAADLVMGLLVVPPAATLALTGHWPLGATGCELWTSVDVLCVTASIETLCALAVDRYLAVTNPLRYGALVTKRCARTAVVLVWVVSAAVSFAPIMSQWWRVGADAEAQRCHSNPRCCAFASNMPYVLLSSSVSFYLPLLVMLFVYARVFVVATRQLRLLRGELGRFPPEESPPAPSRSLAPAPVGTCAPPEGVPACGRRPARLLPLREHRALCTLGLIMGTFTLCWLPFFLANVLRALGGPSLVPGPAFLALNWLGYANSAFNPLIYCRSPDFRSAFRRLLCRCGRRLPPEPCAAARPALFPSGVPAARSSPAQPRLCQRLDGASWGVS
Sequence of MAP kinase-activated protein kinase 2 (P49137 whole entry): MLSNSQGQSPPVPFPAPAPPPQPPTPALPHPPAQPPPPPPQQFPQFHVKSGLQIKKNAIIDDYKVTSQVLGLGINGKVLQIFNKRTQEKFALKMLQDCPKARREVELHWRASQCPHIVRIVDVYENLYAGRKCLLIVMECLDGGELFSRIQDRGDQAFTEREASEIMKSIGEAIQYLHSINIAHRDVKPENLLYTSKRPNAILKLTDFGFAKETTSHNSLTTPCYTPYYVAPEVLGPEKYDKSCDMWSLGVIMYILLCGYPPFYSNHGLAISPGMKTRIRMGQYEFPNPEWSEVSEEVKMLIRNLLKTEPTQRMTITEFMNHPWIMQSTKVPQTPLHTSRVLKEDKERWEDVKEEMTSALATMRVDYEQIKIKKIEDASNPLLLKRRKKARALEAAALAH
Sequence of Serine/threonine-protein kinase PAK 2 (Homo sapiens) (Q13177 whole entry): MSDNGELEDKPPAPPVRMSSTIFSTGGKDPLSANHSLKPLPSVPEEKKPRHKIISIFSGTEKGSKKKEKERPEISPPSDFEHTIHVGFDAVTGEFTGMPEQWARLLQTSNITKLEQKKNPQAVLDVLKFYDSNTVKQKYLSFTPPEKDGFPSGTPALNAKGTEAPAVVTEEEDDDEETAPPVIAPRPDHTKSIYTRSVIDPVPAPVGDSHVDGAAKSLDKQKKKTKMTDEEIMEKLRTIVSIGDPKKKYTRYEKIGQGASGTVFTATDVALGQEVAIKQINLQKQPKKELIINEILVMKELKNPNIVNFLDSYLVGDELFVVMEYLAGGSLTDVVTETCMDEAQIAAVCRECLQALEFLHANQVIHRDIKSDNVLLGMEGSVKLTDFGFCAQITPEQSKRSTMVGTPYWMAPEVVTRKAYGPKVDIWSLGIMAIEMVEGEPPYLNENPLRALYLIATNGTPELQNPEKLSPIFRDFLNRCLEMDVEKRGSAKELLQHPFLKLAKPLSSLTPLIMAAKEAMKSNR
Sequence of Phosphatidylinositol 3-kinase C2 domain-containing subunit gamma (Homo sapiens) (O75747 whole entry, the tested form may be a part): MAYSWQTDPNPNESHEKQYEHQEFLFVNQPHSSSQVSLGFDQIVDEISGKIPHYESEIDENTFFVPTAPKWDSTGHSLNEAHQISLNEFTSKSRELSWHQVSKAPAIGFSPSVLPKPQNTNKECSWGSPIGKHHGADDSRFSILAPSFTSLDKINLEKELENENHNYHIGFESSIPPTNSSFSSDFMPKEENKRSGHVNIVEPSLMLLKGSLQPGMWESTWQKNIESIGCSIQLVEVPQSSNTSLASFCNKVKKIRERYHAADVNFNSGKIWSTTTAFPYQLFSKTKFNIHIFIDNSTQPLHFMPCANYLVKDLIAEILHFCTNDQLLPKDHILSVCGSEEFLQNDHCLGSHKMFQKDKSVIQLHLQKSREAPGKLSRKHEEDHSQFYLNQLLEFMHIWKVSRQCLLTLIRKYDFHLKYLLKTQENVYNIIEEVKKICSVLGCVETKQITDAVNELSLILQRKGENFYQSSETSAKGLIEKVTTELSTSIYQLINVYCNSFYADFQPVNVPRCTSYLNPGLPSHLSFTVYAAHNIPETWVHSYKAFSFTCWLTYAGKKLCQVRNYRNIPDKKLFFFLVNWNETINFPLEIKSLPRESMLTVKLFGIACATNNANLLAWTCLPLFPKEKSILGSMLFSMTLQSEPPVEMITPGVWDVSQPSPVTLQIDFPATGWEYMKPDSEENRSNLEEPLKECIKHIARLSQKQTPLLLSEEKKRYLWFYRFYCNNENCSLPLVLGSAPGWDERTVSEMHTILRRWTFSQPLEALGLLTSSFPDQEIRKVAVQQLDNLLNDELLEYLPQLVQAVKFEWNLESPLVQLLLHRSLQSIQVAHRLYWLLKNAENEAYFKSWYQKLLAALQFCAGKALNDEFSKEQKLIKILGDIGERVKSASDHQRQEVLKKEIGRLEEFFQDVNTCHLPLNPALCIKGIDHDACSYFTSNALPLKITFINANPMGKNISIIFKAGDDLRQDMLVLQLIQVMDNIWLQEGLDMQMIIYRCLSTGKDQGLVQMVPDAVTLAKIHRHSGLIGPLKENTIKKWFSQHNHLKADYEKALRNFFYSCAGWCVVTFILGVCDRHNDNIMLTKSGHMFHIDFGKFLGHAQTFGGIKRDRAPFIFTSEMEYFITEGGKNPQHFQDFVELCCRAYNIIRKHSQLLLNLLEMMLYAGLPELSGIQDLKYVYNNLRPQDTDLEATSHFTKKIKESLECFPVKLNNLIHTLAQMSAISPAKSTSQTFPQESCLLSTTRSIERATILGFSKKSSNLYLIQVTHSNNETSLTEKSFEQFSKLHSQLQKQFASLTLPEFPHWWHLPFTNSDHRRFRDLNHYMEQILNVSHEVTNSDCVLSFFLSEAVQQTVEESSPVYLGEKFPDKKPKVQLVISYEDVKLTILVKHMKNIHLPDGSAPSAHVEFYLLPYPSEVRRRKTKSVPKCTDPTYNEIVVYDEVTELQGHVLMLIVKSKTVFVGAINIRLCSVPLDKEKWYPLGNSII
Sequence of Interferon-induced, double-stranded RNA-activated protein kinase (Homo sapiens) (P19525 whole entry): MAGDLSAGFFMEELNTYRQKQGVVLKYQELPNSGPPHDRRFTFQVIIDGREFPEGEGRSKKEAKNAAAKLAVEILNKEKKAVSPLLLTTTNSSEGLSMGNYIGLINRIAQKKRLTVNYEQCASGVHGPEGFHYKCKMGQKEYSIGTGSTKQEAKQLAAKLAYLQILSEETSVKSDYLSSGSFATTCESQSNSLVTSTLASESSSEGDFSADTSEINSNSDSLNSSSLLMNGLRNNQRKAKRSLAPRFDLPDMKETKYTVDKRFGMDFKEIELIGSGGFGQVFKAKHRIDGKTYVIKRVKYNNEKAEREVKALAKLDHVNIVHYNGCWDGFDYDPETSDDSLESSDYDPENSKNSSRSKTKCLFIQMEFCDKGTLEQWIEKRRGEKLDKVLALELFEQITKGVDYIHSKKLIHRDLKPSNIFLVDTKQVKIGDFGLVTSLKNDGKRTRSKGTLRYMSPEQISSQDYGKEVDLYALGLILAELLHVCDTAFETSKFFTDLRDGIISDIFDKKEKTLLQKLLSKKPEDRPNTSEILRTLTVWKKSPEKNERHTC
Sequence of Dual specificity mitogen-activated protein kinase kinase 1 (Q02750 whole entry): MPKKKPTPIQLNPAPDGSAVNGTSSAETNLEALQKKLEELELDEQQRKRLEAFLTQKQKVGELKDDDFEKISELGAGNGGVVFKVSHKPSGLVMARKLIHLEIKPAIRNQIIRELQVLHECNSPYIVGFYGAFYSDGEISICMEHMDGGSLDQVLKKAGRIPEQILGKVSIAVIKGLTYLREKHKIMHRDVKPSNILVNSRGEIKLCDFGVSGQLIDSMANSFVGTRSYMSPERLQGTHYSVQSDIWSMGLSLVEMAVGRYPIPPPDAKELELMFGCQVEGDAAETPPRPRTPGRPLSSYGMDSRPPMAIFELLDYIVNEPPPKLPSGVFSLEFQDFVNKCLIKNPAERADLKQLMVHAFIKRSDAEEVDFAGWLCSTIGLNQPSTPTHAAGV

## CN(C)C(=O)/C(C#N)=C/c1ccc(-c2nc3cnc4c(ccn4C)c3n2C2CCCCC2)o1
[1]
  % of control: 82%
[2]
  IC50: 0.17 µM

## Cn1nc(C(=O)NCc2ccc(C(=O)O)cc2)cc1-c1ccc2[nH]ccc2c1 [BI 4395]
[3]
  % of control: 33%
D(1B) dopamine receptor [4]
  Ki: > 10 µM
[5]
  % of control: 31%
[6]
  % of control: 23%

## O=C1NC(c2ccccn2)Sc2ccccc21 (stereo unspecified) [BTZO-4]
[7]
  Kd: > 10 µM
[8]
  % of control: 0%
[9]
  % of inhibition: 32.4%
Histamine H1 receptor
  % of inhibition: 49.9%
[10]
  Kd: > 10 µM
[11]
  % of control: 42%

## O=c1nc(-c2ccccn2)sc2ccccc12 [BTZO-1]
[12]
  Ki: 0.934 µM
[13]
  % of control: 36%
[14]
  % of control: 47%

## O=C(c1ccc(F)c(F)c1Nc1ccc(I)cc1F)N1CC(O)([C@@H]2CCCCN2)C1 [COBIMETINIB]
[15]
  IC50: 0.023 µM
[16]
  IC50: 0.031 µM

## CN([C@@H]1CCc2c(CC(=O)O)c3ccccc3n2C1)S(=O)(=O)c1ccc(F)cc1 [MK-7246]
[17]
  Ki: 1.11 µM
[18]
  % of control: 44%
[19]
  % of control: 34%

## C[C@H](NC(=O)c1cnc2n1[C@](C)(Cc1ccc(C#N)cc1)C(=O)N2c1cc(Cl)c(F)c(Cl)c1)C(=O)NC1(c2ccccn2)CC1 [BI 1950]
[20]
  % of inhibition: 72%
[21]
  % of control: 49%
[22]
  % of control: 24%
[23]
  % of control: 34%
[24]
  % of inhibition: 26%

## CCOC(=O)c1cc2cc(-c3cc(C(=O)NCc4ccc(C(=O)O)cc4)nn3C)ccc2[nH]1 [BI 4394]
[25]
  IC50: 1.6 µM
D(1B) dopamine receptor [26]
  Ki: > 10 µM
Neutrophil collagenase
  IC50: > 22 µM
[27]
  IC50: 1.9 µM
Matrilysin
  IC50: > 22 µM
[28]
  % of control: 0%
Stromelysin-1
  IC50: > 22 µM
[29]
  IC50: 1.1 µM
Aurora kinase A
  IC50: 1.3 µM
[30]
  % of control: 0%
[31]
  IC50: > 22 µM
[32]
  % of control: 43%
Interstitial collagenase
  IC50: > 22 µM
D(1B) dopamine receptor [33]
  % of inhibition: 60%

## CC(C)(C)OC(=O)N1CCCC1CNC1CCC(c2cc(F)ccc2F)(S(=O)(=O)c2ccc(Cl)cc2)CC1 (stereo unspecified) [GSI-NC]
[34]
  Ki: > 10 µM

## O=C(Nc1ccc(-n2nc(-c3cccnc3)cc2C(F)(F)F)cn1)c1ccc(-c2ccccc2)c(F)c1 [BI 2049]
[35]
  Ki: > 10 µM
